Converted amounts (≈) assume the structure as drawn. Like-named read-outs stand apart in the source and are kept apart here.
Columns and labels:
Assay in all cases: MIC panel of challenge pathogens (CLSI)
Assay type in all cases: cell-based
[1] = test system: Staphylococcus aureus EUP MRSA004
Experimental: (§1) The inocula for each bacterial strain were prepared by picking 5-10 distinct colonies from the culture plates and suspending them in the appropriate broth as per Clinical and Laboratory Standards Institute (CLSI) guidelines M07-A8, M24-A or M11-A7 as appropriate. The inoculum was resuspended by vigorous shaking on a vortex mixer for 15 s. The turbidity was then adjusted to McFarland standard 0.5 ([…]). The inoculum was further diluted in the appropriate media for MIC tests to give a final inoculum in each well of 2-8×10^5 CFU/ml. MICs were tested in the appropriate broth in accordance with the appropriate CLSI guidelines.
(§2) A stock solution of each compound was prepared at a concentration of 1.28 g/L in DMSO. The stock was further diluted in the appropriate media to give a top starting concentration of 128 mg/L in the assay. 100 μL of the appropriate media, as per CLSI guidelines, was dispensed into each well in columns 2-12. 200 μL of the each compound solution (at 256 mg/L) was dispensed into each well in column 1. 100 μL aliquots were pipetted from column 1 wells and dispensed into column 2 with a multichannel pipette (±2% coefficient of variation) thus diluting two-fold. 100 μL samples were then pipetted from column 2 wells and dispensed into column 3. The process was repeated through to column 10. The final 100 μL of diluted drug from column 10 was then discarded. Row 11 acted as a positive control (no compound, but organisms added), Row 12 acted as a negative control (no compound, and no organisms added).
(§3) 100 μL of the appropriate inoculum suspension in the appropriate media, as per CLSI guidelines, was added to the appropriate wells. […] All plates were incubated in the dark under aerobic or anaerobic conditions at 30-37° C. for 24-48 hours, according to the appropriate CLSI guideline. Plates were read visually 24-48 hours post inoculation. Endpoints of 100% inhibition were determined (CLSI interpretation endpoints following visual examination).
(§4) MIC50, MIC80, and 100% inhibition results are reported below in μg/mL in the following Tables, indicating each compound tested against a given species and strain: […]

[2] = test system: Staphylococcus aureus NRS382
Experimental: as §1, §2, §3, §4

[3] = test system: Staphylococcus aureus NRS2 (ATCC700698); settings: for MIC: read-out: 100% inhibition; for MIC50: read-out: MIC50 (50%); for MIC80: read-out: MIC80 (80%)
Experimental: as §1, §2, §3, §4

[4] = test system: Staphylococcus aureus NRS384
Experimental: as §1, §2, §3, §4

[5] = test system: Staphylococcus aureus AUR58 7005
Experimental: as §1, §2, §3, §4

[6] = test system: Staphylococcus aureus NRS383
Experimental: as §1, §2, §3, §4

[7] = test system: Enterococcus faecalis ATCC51299
Experimental: as §1, §2, §3, §4

[8] = test system: Staphylococcus aureus EUP SAU040
Experimental: as §1, §2, §3, §4

[9] = test system: Staphylococcus aureus AUR131 007035
Experimental: as §1, §2, §3, §4

[10] = Staphylococcus aureus NRS2 (ATCC700698)

Q: For Clc1ccc(Cc2sc(-c3nnn[nH]3)cc2-c2cccc(CC3CCCC3)c2)cc1 [DNM0610, 5-(5-(4-Chlorobenzyl)-4-(3-(cyclopentylmethyl)phenyl)thiophen-2-yl)-1H-tetrazole], which MIC ([1]; EUPMRSA004, Staphylococcus aureus EUP MRSA004, read-out: 100% inhibition) is on record?
A: ≤ 0.25 µg/mL

Q: What about the MIC50 ([1]; EUPMRSA004, Staphylococcus aureus EUP MRSA004, read-out: MIC50 (50%)) of the same compound?
A: ≤ 0.25 µg/mL

Q: What about the MIC80 ([1]; EUPMRSA004, Staphylococcus aureus EUP MRSA004, read-out: MIC80 (80%)) of the same compound?
A: ≤ 0.25 µg/mL

Q: What about the MIC ([2]; Staphylococcus aureus NRS382, read-out: 100% inhibition) of the same compound?
A: 0.5 µg/mL (≈ 1.15 µM)

Q: And the MIC50 ([2]; Staphylococcus aureus NRS382, read-out: MIC50 (50%))?
A: 0.5 µg/mL (≈ 1.15 µM)

Q: What about the MIC80 ([2]; Staphylococcus aureus NRS382, read-out: MIC80 (80%)) of the same compound?
A: 0.5 µg/mL (≈ 1.15 µM)

Q: What about the MIC [3, 10] of the same compound?
A: 0.5 µg/mL (≈ 1.15 µM)

Q: And the MIC50 [3, 10]?
A: 0.5 µg/mL (≈ 1.15 µM)

Q: And the MIC80 [3, 10]?
A: 0.5 µg/mL (≈ 1.15 µM)

Q: What about the MIC ([4]; Staphylococcus aureus NRS384, read-out: 100% inhibition) of the same compound?
A: ≤ 0.25 µg/mL

Q: And the MIC50 ([4]; Staphylococcus aureus NRS384, read-out: MIC50 (50%))?
A: ≤ 0.25 µg/mL

Q: And the MIC80 ([4]; Staphylococcus aureus NRS384, read-out: MIC80 (80%))?
A: ≤ 0.25 µg/mL

Q: What about the MIC ([5]; AUR587005, Staphylococcus aureus AUR58 7005, read-out: 100% inhibition) of the same compound?
A: 2 µg/mL (≈ 4.6 µM)

Q: What about the MIC50 ([5]; AUR587005, Staphylococcus aureus AUR58 7005, read-out: MIC50 (50%)) of the same compound?
A: 1 µg/mL (≈ 2.3 µM)

Q: And the MIC80 ([5]; AUR587005, Staphylococcus aureus AUR58 7005, read-out: MIC80 (80%))?
A: 2 µg/mL (≈ 4.6 µM)

Q: And the MIC ([6]; Staphylococcus aureus NRS383, read-out: 100% inhibition)?
A: 0.5 µg/mL (≈ 1.15 µM)

Q: And the MIC50 ([6]; Staphylococcus aureus NRS383, read-out: MIC50 (50%))?
A: 0.5 µg/mL (≈ 1.15 µM)

Q: And the MIC80 ([6]; Staphylococcus aureus NRS383, read-out: MIC80 (80%))?
A: 0.5 µg/mL (≈ 1.15 µM)

Q: What about the MIC ([7]; Enterococcus faecalis ATCC51299, read-out: 100% inhibition) of the same compound?
A: 1 µg/mL (≈ 2.3 µM)

Q: What about the MIC50 ([7]; Enterococcus faecalis ATCC51299, read-out: MIC50 (50%)) of the same compound?
A: 1 µg/mL (≈ 2.3 µM)

Q: What about the MIC80 ([7]; Enterococcus faecalis ATCC51299, read-out: MIC80 (80%)) of the same compound?
A: 1 µg/mL (≈ 2.3 µM)

Q: What about the MIC ([8]; EUPSAU040, Staphylococcus aureus EUP SAU040, read-out: 100% inhibition) of the same compound?
A: 0.5 µg/mL (≈ 1.15 µM)

Q: What about the MIC50 ([8]; EUPSAU040, Staphylococcus aureus EUP SAU040, read-out: MIC50 (50%)) of the same compound?
A: 0.5 µg/mL (≈ 1.15 µM)

Q: What about the MIC80 ([8]; EUPSAU040, Staphylococcus aureus EUP SAU040, read-out: MIC80 (80%)) of the same compound?
A: 0.5 µg/mL (≈ 1.15 µM)

Q: What about the MIC ([9]; AUR131007035, Staphylococcus aureus AUR131 007035, read-out: 100% inhibition) of the same compound?
A: 0.5 µg/mL (≈ 1.15 µM)

Q: What about the MIC50 ([9]; AUR131007035, Staphylococcus aureus AUR131 007035, read-out: MIC50 (50%)) of the same compound?
A: 0.5 µg/mL (≈ 1.15 µM)

Q: What about the MIC80 ([9]; AUR131007035, Staphylococcus aureus AUR131 007035, read-out: MIC80 (80%)) of the same compound?
A: 0.5 µg/mL (≈ 1.15 µM)

Q: CN[C@H](CC(C)C)C(=O)N[C@H]1C(=O)N[C@@H](CC(N)=O)C(=O)N[C@H]2C(=O)N[C@H]3C(=O)N[C@H](C(=O)N[C@H](C(=O)O)c4cc(O)cc(O)c4-c4cc3ccc4O)[C@H](O)c3ccc(c(Cl)c3)Oc3cc2cc(c3O[C@@H]2O[C@H](CO)[C@@H](O)[C@H](O)[C@H]2O[C@H]2C[C@](C)(N)[C@H](O)[C@H](C)O2)Oc2ccc(cc2Cl)[C@H]1O [Vancomycin, reference compound] was tested. Which MIC ([1]; Staphylococcus aureus, EUPMRSA004, read-out: 100% inhibition) did it give?
A: 0.5 µg/mL (≈ 0.345 µM)

Q: And the MIC50 ([1]; Staphylococcus aureus, EUPMRSA004, read-out: MIC50 (50%))?
A: 0.5 µg/mL (≈ 0.345 µM)

Q: And the MIC80 ([1]; Staphylococcus aureus, EUPMRSA004, read-out: MIC80 (80%))?
A: 0.5 µg/mL (≈ 0.345 µM)

Q: What about the MIC ([2]; Staphylococcus aureus, NRS382, read-out: 100% inhibition) of the same compound?
A: 1 µg/mL (≈ 0.69 µM)

Q: What about the MIC50 ([2]; Staphylococcus aureus, NRS382, read-out: MIC50 (50%)) of the same compound?
A: 1 µg/mL (≈ 0.69 µM)

Q: And the MIC80 ([2]; Staphylococcus aureus, NRS382, read-out: MIC80 (80%))?
A: 1 µg/mL (≈ 0.69 µM)

Q: What about the MIC ([3]; Staphylococcus aureus) of the same compound?
A: 1 µg/mL (≈ 0.69 µM)

Q: What about the MIC50 ([3]; Staphylococcus aureus) of the same compound?
A: 0.5 µg/mL (≈ 0.345 µM)

Q: What about the MIC80 ([3]; Staphylococcus aureus) of the same compound?
A: 1 µg/mL (≈ 0.69 µM)

Q: And the MIC ([4]; Staphylococcus aureus, NRS384, read-out: 100% inhibition)?
A: 1 µg/mL (≈ 0.69 µM)

Q: What about the MIC50 ([4]; Staphylococcus aureus, NRS384, read-out: MIC50 (50%)) of the same compound?
A: 1 µg/mL (≈ 0.69 µM)

Q: And the MIC80 ([4]; Staphylococcus aureus, NRS384, read-out: MIC80 (80%))?
A: 1 µg/mL (≈ 0.69 µM)

Q: And the MIC ([5]; Staphylococcus aureus, AUR587005, read-out: 100% inhibition)?
A: 1 µg/mL (≈ 0.69 µM)

Q: And the MIC50 ([5]; Staphylococcus aureus, AUR587005, read-out: MIC50 (50%))?
A: 1 µg/mL (≈ 0.69 µM)

Q: And the MIC80 ([5]; Staphylococcus aureus, AUR587005, read-out: MIC80 (80%))?
A: 1 µg/mL (≈ 0.69 µM)

Q: And the MIC ([6]; Staphylococcus aureus, NRS383, read-out: 100% inhibition)?
A: 0.5 µg/mL (≈ 0.345 µM)

Q: And the MIC50 ([6]; Staphylococcus aureus, NRS383, read-out: MIC50 (50%))?
A: 0.5 µg/mL (≈ 0.345 µM)

Q: And the MIC80 ([6]; Staphylococcus aureus, NRS383, read-out: MIC80 (80%))?
A: 0.5 µg/mL (≈ 0.345 µM)

Q: What about the MIC ([7]; Enterococcus faecalis, ATCC51299, read-out: 100% inhibition) of the same compound?
A: > 16 µg/mL

Q: What about the MIC50 ([7]; Enterococcus faecalis, ATCC51299, read-out: MIC50 (50%)) of the same compound?
A: > 16 µg/mL

Q: And the MIC80 ([7]; Enterococcus faecalis, ATCC51299, read-out: MIC80 (80%))?
A: > 16 µg/mL

Q: What about the MIC ([8]; Staphylococcus aureus, EUPSAU040, read-out: 100% inhibition) of the same compound?
A: 1 µg/mL (≈ 0.69 µM)

Q: What about the MIC50 ([8]; Staphylococcus aureus, EUPSAU040, read-out: MIC50 (50%)) of the same compound?
A: 1 µg/mL (≈ 0.69 µM)

Q: And the MIC80 ([8]; Staphylococcus aureus, EUPSAU040, read-out: MIC80 (80%))?
A: 1 µg/mL (≈ 0.69 µM)

Q: What about the MIC ([9]; Staphylococcus aureus, AUR131007035, read-out: 100% inhibition) of the same compound?
A: 0.5 µg/mL (≈ 0.345 µM)

Q: And the MIC50 ([9]; Staphylococcus aureus, AUR131007035, read-out: MIC50 (50%))?
A: 0.5 µg/mL (≈ 0.345 µM)

Q: What about the MIC80 ([9]; Staphylococcus aureus, AUR131007035, read-out: MIC80 (80%)) of the same compound?
A: 0.5 µg/mL (≈ 0.345 µM)

Reference: US9012655B2, “Antimicrobial/adjuvant compounds and methods” (Denouamed, Inc., priority 2011, dated 2015)
